Reference: ChEMBL document CHEMBL3992552, “Mechanisms of action and structure-activity relationships of cytotoxic flavokawain derivatives” (Bioorg Med Chem, 2017)
The source made the active and inactive calls. No cut-off for these calls is given here.

Test system: HaCaT
Experiment: Cell cycle arrest in human HaCaT cells harboring […] p53 assessed as accumulation at S phase at 25 uM measured after 48 hrs by Hoechst/BrdU staining based fluorescence assay (reference value: 52.3%)
Type: functional
Settings: not given

SMILES | Activity
COc1cc(O)c(C(=O)/C=C/c2ccccc2)c(OC)c1 [FLAVOKAWAIN B] | 21%

Test system: PC-3
Experiment: Induction of apoptosis in human PC3 cells harboring p53 mutant assessed as upregulation of cyclinB1 after 48 hrs by Hoechst staining based assay
Type: functional, cell-based
Settings: not given

SMILES | Activity
COc1cc(O)c(C(=O)/C=C/c2ccccc2)c(OC)c1 [FLAVOKAWAIN B] | Active

Test system: MDA-MB-231
Experiment: Cell cycle arrest in human MDA-MB-231 cells harboring p53 mutant assessed as mitotic index at 10 uM measured after 48 hrs by Hoechst staining based fluorescence assay (reference value: 2.1)
Type: functional
Settings: not given

SMILES | Activity_index
COc1cc(O)c(C(=O)/C=C/c2ccccc2)c(OC)c1 [FLAVOKAWAIN B] | 5.2

Test system: not listed separately
Experiment: Selectivity index, ratio of IC50 for human fibroblasts to IC50 for human MDA-MB-231 cells
Settings: not given

SMILES | Ratio IC50
COc1cc(O)c(C(=O)/C=C/c2ccccc2)c(OC)c1 [FLAVOKAWAIN B] | 1.6

Test system: PC-3
Experiment: Cell cycle arrest in human PC3 cells harboring p53 mutant assessed as accumulation at S phase at 10 uM measured after 48 hrs by Hoechst/BrdU staining based fluorescence assay (reference value: 40.8%)
Type: functional
Settings: not given

SMILES | Activity
COc1cc(O)c(C(=O)/C=C/c2ccccc2)c(OC)c1 [FLAVOKAWAIN B] | 35%

Test system: MCF7
Experiment: Induction of apoptosis in human MCF7 cells harboring wild-type p53 assessed as increase in early apoptosis at 2 times IC50 after 24 hrs by YoPro/propidium iodide/Hoechst staining based assay
Type: functional, cell-based
Settings: not given

SMILES | Activity
COc1cc(O)c(C(=O)/C=C/c2ccccc2)c(OC)c1 [FLAVOKAWAIN B] | Active

Test system: NCI-H727
Experiment: Cell cycle arrest in human NCI-H727 cells harboring p53 mutant assessed as accumulation at S phase at 10 uM measured after 48 hrs by Hoechst/BrdU staining based fluorescence assay (reference value: 40.3%)
Type: functional
Settings: not given

SMILES | Activity
COc1cc(O)c(C(=O)/C=C/c2ccccc2)c(OC)c1 [FLAVOKAWAIN B] | 39%

Test system: Huh-7
Experiment: Cell cycle arrest in human HuH7 cells assessed as mitotic index at 25 uM measured after 48 hrs by Hoechst staining based fluorescence assay (reference value: 2.2)
Type: functional
Settings: not given

SMILES | Activity_index
COc1cc(O)c(C(=O)/C=C/c2ccccc2)c(OC)c1 [FLAVOKAWAIN B] | 1.7

Test system: MDA-MB-231
Experiment: Cytotoxicity against human MDA-MB-231 cells assessed as cell viability after 48 hrs by Hoechst 33342 staining based assay
Type: functional
Settings: MDA-MB-231, 48 h

SMILES | IC50
COc1cc(O)c(C(=O)/C=C/c2ccccc2)c(OC)c1 [FLAVOKAWAIN B] | 16.3 µM

Test system: not listed separately
Experiment: Selectivity index, ratio of IC50 for human fibroblasts to IC50 for human RL cells
Settings: not given

SMILES | Ratio IC50
COc1cc(O)c(C(=O)/C=C/c2ccccc2)c(OC)c1 [FLAVOKAWAIN B] | 3.2

Test system: PC-3
Experiment: Cell cycle arrest in human PC3 cells harboring p53 mutant assessed as accumulation at S phase at 25 uM measured after 48 hrs by Hoechst/BrdU staining based fluorescence assay (reference value: 40.8%)
Type: functional
Settings: not given

SMILES | Activity
COc1cc(O)c(C(=O)/C=C/c2ccccc2)c(OC)c1 [FLAVOKAWAIN B] | 20%

Test system: not listed separately
Experiment: Selectivity index, ratio of IC50 for human fibroblasts to IC50 for human HuH7 cells
Settings: not given

SMILES | Ratio IC50
COc1cc(O)c(C(=O)/C=C/c2ccccc2)c(OC)c1 [FLAVOKAWAIN B] | 1.7

Test system: HaCaT
Experiment: Cell cycle arrest in human HaCaT cells harboring […] p53 assessed as accumulation at S phase at 10 uM measured after 48 hrs by Hoechst/BrdU staining based fluorescence assay (reference value: 52.3%)
Type: functional
Settings: not given

SMILES | Activity
COc1cc(O)c(C(=O)/C=C/c2ccccc2)c(OC)c1 [FLAVOKAWAIN B] | 50%

Test system: not listed separately
Experiment: Selectivity index, ratio of IC50 for human fibroblasts to IC50 for human MCF7 cells
Settings: not given

SMILES | Ratio IC50
COc1cc(O)c(C(=O)/C=C/c2ccccc2)c(OC)c1 [FLAVOKAWAIN B] | 1.7

Test system: MDA-MB-231
Experiment: Cell cycle arrest in human MDA-MB-231 cells assessed as accumulation at M phase by Hoechst staining based fluorescence assay
Type: functional
Settings: not given

SMILES | Activity
COc1cc(O)c(C(=O)/C=C/c2ccccc2)c(OC)c1 [FLAVOKAWAIN B] | Active

Test system: HCT-116
Experiment: Cytotoxicity against human HCT116 cells assessed as cell survival at 50 uM after 48 hrs by Hoechst 33342 staining based assay relative to control
Type: functional
Settings: HCT-116, 48 h, read-out: Survival

SMILES | viability at 50 µM
COc1cc(O)c(C(=O)/C=C/c2ccccc2)c(OC)c1 [FLAVOKAWAIN B] | 0%

Test system: Caco-2
Experiment: Cell cycle arrest in human Caco2 cells assessed as accumulation at S phase at 25 uM measured after 48 hrs by Hoechst/BrdU staining based fluorescence assay (reference value: […])
Type: functional
Settings: not given

SMILES | Activity
COc1cc(O)c(C(=O)/C=C/c2ccccc2)c(OC)c1 [FLAVOKAWAIN B] | 40%

Test system: not listed separately
Experiment: Selectivity index, ratio of IC50 for human fibroblasts to IC50 for human HCT116 cells
Settings: not given

SMILES | Ratio IC50
COc1cc(O)c(C(=O)/C=C/c2ccccc2)c(OC)c1 [FLAVOKAWAIN B] | 3.5

Test system: MCF7
Experiment: Induction of apoptosis in human MCF7 cells harboring wild-type p53 assessed as increase in late apoptosis at 2 times IC50 after 24 hrs by YoPro/propidium iodide/Hoechst staining based assay
Type: functional, cell-based
Settings: not given

SMILES | Activity
COc1cc(O)c(C(=O)/C=C/c2ccccc2)c(OC)c1 [FLAVOKAWAIN B] | Active

Test system: HCT-116
Experiment: Cell cycle arrest in human HCT116 cells harboring wild-type p53 assessed as mitotic index at 25 uM measured after 48 hrs by Hoechst staining based fluorescence assay (reference value: 2.3)
Type: functional
Settings: not given

SMILES | Activity_index
COc1cc(O)c(C(=O)/C=C/c2ccccc2)c(OC)c1 [FLAVOKAWAIN B] | 0.6

Test system: HaCaT
Experiment: Cytotoxicity against human HaCaT cells assessed as cell viability after 48 hrs by Hoechst 33342 staining based assay
Type: functional
Settings: not given

SMILES | IC50
COc1cc(O)c(C(=O)/C=C/c2ccccc2)c(OC)c1 [FLAVOKAWAIN B] | 13.6 µM

Test system: Huh-7
Experiment: Cell cycle arrest in human HuH7 cells assessed as mitotic index at 10 uM measured after 48 hrs by Hoechst staining based fluorescence assay (reference value: 2.2)
Type: functional
Settings: not given

SMILES | Activity_index
COc1cc(O)c(C(=O)/C=C/c2ccccc2)c(OC)c1 [FLAVOKAWAIN B] | 2.2

Test system: MDA-MB-231
Experiment: Cell cycle arrest in human MDA-MB-231 cells harboring p53 mutant assessed as accumulation at S phase at 10 uM measured after 48 hrs by Hoechst/BrdU staining based fluorescence assay (reference value: 42.2%)
Type: functional
Settings: not given

SMILES | Activity
COc1cc(O)c(C(=O)/C=C/c2ccccc2)c(OC)c1 [FLAVOKAWAIN B] | 54%

Test system: HCT-116
Experiment: Induction of apoptosis in human HCT116 cells harboring wild-type p53 assessed as upregulation of p21 measured after 48 hrs by Hoechst staining based fluorescence assay
Type: functional, cell-based
Settings: not given

SMILES | Activity
COc1cc(O)c(C(=O)/C=C/c2ccccc2)c(OC)c1 [FLAVOKAWAIN B] | Active

Test system: PC-3
Experiment: Induction of apoptosis in human PC3 cells harboring p53 mutant assessed as increase in late apoptosis at 2 times IC50 after 48 hrs by YoPro/propidium iodide/Hoechst staining based assay
Type: functional, cell-based
Settings: not given

SMILES | Activity
COc1cc(O)c(C(=O)/C=C/c2ccccc2)c(OC)c1 [FLAVOKAWAIN B] | Active

Test system: HCT-116
Experiment: Cell cycle arrest in human HCT116 cells harboring wild-type p53 assessed as accumulation at S phase at 25 uM measured after 48 hrs by Hoechst/BrdU staining based fluorescence assay (reference value: 68.4%)
Type: functional
Settings: not given

SMILES | Activity
COc1cc(O)c(C(=O)/C=C/c2ccccc2)c(OC)c1 [FLAVOKAWAIN B] | 28%

Test system: MDA-MB-231
Experiment: Cell cycle arrest in human MDA-MB-231 cells harboring p53 mutant assessed as accumulation at S phase at 25 uM measured after 48 hrs by Hoechst/BrdU staining based fluorescence assay (reference value: 42.2%)
Type: functional
Settings: not given

SMILES | Activity
COc1cc(O)c(C(=O)/C=C/c2ccccc2)c(OC)c1 [FLAVOKAWAIN B] | 40%

Test system: RL
Experiment: Cytotoxicity against human RL assessed as cell viability after 48 hrs by Hoechst 33342 staining based assay
Type: functional
Settings: not given

SMILES | IC50
COc1cc(O)c(C(=O)/C=C/c2ccccc2)c(OC)c1 [FLAVOKAWAIN B] | 8.2 µM

Test system: NCI-H727
Experiment: Cell cycle arrest in human NCI-H727 cells harboring p53 mutant assessed as accumulation at S phase at 25 uM measured after 48 hrs by Hoechst/BrdU staining based fluorescence assay (reference value: 40.3%)
Type: functional
Settings: not given

SMILES | Activity
COc1cc(O)c(C(=O)/C=C/c2ccccc2)c(OC)c1 [FLAVOKAWAIN B] | 7%

Test system: HaCaT
Experiment: Cell cycle arrest in human HaCaT cells harboring […] p53 assessed as mitotic index at 10 uM measured after 48 hrs by Hoechst staining based fluorescence assay (reference value: 2.6)
Type: functional
Settings: not given

SMILES | Activity_index
COc1cc(O)c(C(=O)/C=C/c2ccccc2)c(OC)c1 [FLAVOKAWAIN B] | 3.4

Test system: MDA-MB-231
Experiment: Induction of apoptosis in human MDA-MB-231 cells harboring p53 mutant assessed as increase in late apoptosis at 2 times IC50 after 24 hrs by YoPro/propidium iodide/Hoechst staining based assay
Type: functional, cell-based
Settings: not given

SMILES | Activity
COc1cc(O)c(C(=O)/C=C/c2ccccc2)c(OC)c1 [FLAVOKAWAIN B] | Active

Test system: not listed separately
Experiment: Selectivity index, ratio of IC50 for human fibroblasts to IC50 for human Caco2 cells
Settings: not given

SMILES | Ratio IC50
COc1cc(O)c(C(=O)/C=C/c2ccccc2)c(OC)c1 [FLAVOKAWAIN B] | 2.7

Test system: Caco-2
Experiment: Cytotoxicity against human Caco2 cells assessed as cell survival at 50 uM after 48 hrs by Hoechst 33342 staining based assay relative to control
Type: functional
Settings: Caco-2, 48 h, read-out: Survival

SMILES | viability at 50 µM
COc1cc(O)c(C(=O)/C=C/c2ccccc2)c(OC)c1 [FLAVOKAWAIN B] | 1%

Test system: HCT-116
Experiment: Cytotoxicity against human HCT116 cells assessed as cell viability after 48 hrs by Hoechst 33342 staining based assay
Type: functional
Settings: HCT-116, 48 h

SMILES | IC50
COc1cc(O)c(C(=O)/C=C/c2ccccc2)c(OC)c1 [FLAVOKAWAIN B] | 7.5 µM

Test system: HaCaT
Experiment: Cytotoxicity against human HaCaT cells assessed as cell survival at 50 uM after 48 hrs by Hoechst 33342 staining based assay relative to control
Type: functional
Settings: read-out: Survival

SMILES | viability at 50 µM
COc1cc(O)c(C(=O)/C=C/c2ccccc2)c(OC)c1 [FLAVOKAWAIN B] | 7%

Test system: MDA-MB-231
Experiment: Cytotoxicity against human MDA-MB-231 cells assessed as cell survival at 50 uM after 48 hrs by Hoechst 33342 staining based assay relative to control
Type: functional
Settings: MDA-MB-231, 48 h, read-out: Survival

SMILES | viability at 50 µM
COc1cc(O)c(C(=O)/C=C/c2ccccc2)c(OC)c1 [FLAVOKAWAIN B] | 19%

Test system: NCI-H727
Experiment: Cytotoxicity against human NCI-H727 cells assessed as cell survival at 50 uM after 48 hrs by Hoechst 33342 staining based assay relative to control
Type: functional
Settings: NCI-H727, 48 h, read-out: Survival

SMILES | viability at 50 µM
COc1cc(O)c(C(=O)/C=C/c2ccccc2)c(OC)c1 [FLAVOKAWAIN B] | 2%
